Earlier results in paper PMC5413030, “Radiochemistry on electrodes: Synthesis of an ^18F-labelled and in vivo stable COX-2 inhibitor” (PLoS ONE, 2017).

Legend:
[1] = oxidation of the methyl group

- metabolic behavior of celecoxib [1]: almost completely metabolized
- protein binding in plasma: > 95%
Compound: Cc1ccc(-c2cc(C(F)(F)F)nn2-c2ccc(S(N)(=O)=O)cc2)cc1 [Celecoxib, 4-[5-(4-Methylphenyl)-3-(trifluoromethyl)-1H-pyrazol-1-yl]benzenesulfonamide]
